Test results from patent US20230085307A1, “PYRIDAZINONE COMPOUND AND HERBICIDE” (NISSAN CHEMICAL CORPORATION, priority 2019, published 2023).

Legend:
false cleavers [1] = test: Test Example 5: herbicidal effect by foliage application, plastic box (Table 20, symbol Q); assay type: in vivo, false cleavers (Galium spurium); conditions: foliage application, 320 g/ha, three weeks after application
Outline: (§1)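 Plants sown in sterilized diluvial soil and grown 14 days in a greenhouse at 25° C to 30° C, then sprayed on the foliage with the compound's emulsion diluted in water to a predetermined herbicide amount. Injury to weeds and crops scored three weeks after application on a visual rating scale.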

Italian ryegrass [2] = test: Test Example 5: herbicidal effect by foliage application, plastic box (Table 20, symbol K); assay type: in vivo, Italian ryegrass (Lolium multiflorum); conditions: foliage application, 320 g/ha, three weeks after application
Outline: as §1

chickweed [3] = test: Test Example 5: herbicidal effect by foliage application, plastic box (Table 20, symbol P); assay type: in vivo, common chickweed (Stellaria media); conditions: foliage application, 320 g/ha, three weeks after application
Outline: as §1

chickweed [4] = test: Test Example 4: herbicidal effect by soil treatment (Table 19, symbol P); assay type: in vivo, common chickweed (Stellaria media); conditions: amount of applied herbicide 320 g/ha
Outline: (§2)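 Three weeks of greenhouse growth at 25° C. to 30° C. followed a uniform surface spray of water-diluted emulsion at a predetermined herbicide amount. Seeds had been sown beforehand under about 1.5 cm of sterilized diluvial soil. Grading followed criteria set out in an earlier test.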

blackgrass [5] = test: Test Example 4: herbicidal effect by soil treatment (Table 19, symbol J); assay type: in vivo, blackgrass (Alopecurus myosuroides); conditions: amount of applied herbicide 320 g/ha
Outline: as §2

late watergrass [6] = test: Test Example 1: herbicidal activity, application before weed generation under submerged conditions (Table 16, symbol A); assay type: in vivo, late watergrass (Echinochloa oryzicola); conditions: amount of applied herbicide 320 g/ha
Outline: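 Submerged Wagner pots (alluvial soil, 4 cm water) sown with weed seeds and planted with 2.5-leaf rice seedlings; emulsifiable concentrate diluted in water applied to water surface on sowing day. Held in greenhouse at 25-30 °C; injury scored 0-5 by herbicidal rate after three weeks.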

late watergrass [7] = test: Test Example 2: herbicidal activity, application during weed generation under submerged conditions (Table 17, symbol A); assay type: in vivo, late watergrass (Echinochloa oryzicola); conditions: AAH 320 g/ha; application during weed generation, submerged conditions
Outline: (§3)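 In this pot test, flooded alluvial soil (water depth 4 cm) holds all three species sown as a mixture. Once seedlings have one to two leaves, the compound's emulsion, thinned with water to the intended dose, is poured on the water; grading follows after three weeks on the earlier criteria.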

Italian ryegrass [8] = test: Test Example 4: herbicidal effect by soil treatment (Table 19, symbol K); assay type: in vivo, Italian ryegrass (Lolium multiflorum); conditions: amount of applied herbicide 320 g/ha
Outline: as §2

persian speedwell = test: Test Example 4: herbicidal effect by soil treatment (Table 19, symbol R); assay type: in vivo, Persian speedwell (Veronica persica); conditions: amount of applied herbicide 320 g/ha
Outline: as §2

southern crabgrass = test: Test Example 5: herbicidal effect by foliage application, plastic box (Table 20, symbol F); assay type: in vivo, southern crabgrass (Digitaria ciliaris); conditions: foliage application, 320 g/ha, three weeks after application
Outline: as §1

false cleavers [9] = test: Test Example 4: herbicidal effect by soil treatment (Table 19, symbol Q); assay type: in vivo, false cleavers (Galium spurium); conditions: amount of applied herbicide 320 g/ha
Outline: as §2

Japanese bulrush = test: Test Example 2: herbicidal activity, application during weed generation under submerged conditions (Table 17, symbol B); assay type: in vivo, Japanese bulrush (Schoenoplectus juncoides); conditions: AAH 320 g/ha; application during weed generation, submerged conditions
Outline: as §3

blackgrass [10] = test: Test Example 5: herbicidal effect by foliage application, plastic box (Table 20, symbol J); assay type: in vivo, blackgrass (Alopecurus myosuroides); conditions: foliage application, 320 g/ha, three weeks after application
Outline: as §1

oval-leafed pondweed = test: Test Example 2: herbicidal activity, application during weed generation under submerged conditions (Table 17, symbol C); assay type: in vivo, oval-leafed pondweed (Monochoria vaginalis); conditions: AAH 320 g/ha; application during weed generation, submerged conditions
Outline: as §3

lambsquarters = test: Test Example 4: herbicidal effect by soil treatment (Table 19, symbol O); assay type: in vivo, lambsquarters (Chenopodium album); conditions: amount of applied herbicide 320 g/ha
Outline: as §2

redroot pigweed = test: Test Example 5: herbicidal effect by foliage application, plastic box (Table 20, symbol N); assay type: in vivo, redroot pigweed (Amaranthus retroflexus); conditions: foliage application, 320 g/ha, three weeks after application
Outline: as §1

velvetleaf = test: Test Example 5: herbicidal effect by foliage application, plastic box (Table 20, symbol M); assay type: in vivo, velvetleaf (Abutilon theophrasti); conditions: foliage application, 320 g/ha, three weeks after application
Outline: as §1

wild oat = test: Test Example 4: herbicidal effect by soil treatment (Table 19, symbol I); assay type: in vivo, wild oat (Avena fatua); conditions: amount of applied herbicide 320 g/ha
Outline: as §2

Row | SMILES | Q: false cleavers, herbicidal effect grade (false cleavers [1]) | K: Italian ryegrass, herbicidal effect grade (Italian ryegrass [2]) | P: chickweed, herbicidal effect grade (chickweed [3]) | herbicidal effect, P: chickweed (chickweed [4]) | herbicidal effect, J: blackgrass (blackgrass [5]) | Herbicidal effect, A: late watergrass (late watergrass [6]) | herbicidal effect rating, A: late watergrass (late watergrass [7]) | herbicidal effect, K: Italian ryegrass (Italian ryegrass [8]) | herbicidal effect, R: persian speedwell (persian speedwell) | F: southern crabgrass, herbicidal effect grade (southern crabgrass) | herbicidal effect, Q: false cleavers (false cleavers [9]) | herbicidal effect rating, B: Japanese bulrush (Japanese bulrush) | J: blackgrass, herbicidal effect grade (blackgrass [10]) | herbicidal effect rating, C: oval-leafed pondweed (oval-leafed pondweed) | herbicidal effect, O: lambsquarters (lambsquarters) | N: redroot pigweed, herbicidal effect grade (redroot pigweed) | M: velvetleaf, herbicidal effect grade (velvetleaf) | herbicidal effect, I: wild oat (wild oat)
1 | COc1cc(F)ccc1-c1sc2cc(F)ccc2c1-c1c(O)c(C)nn(C)c1=O [3-009] | 5 (Herbicidal rate of 90% or more (almost completely withered)) | 5 (Herbicidal rate of 90% or more (almost completely withered)) | 5 (Herbicidal rate of 90% or more (almost completely withered)) | 4 (Herbicidal rate of 70% or more and less than 90%) | 4 (Herbicidal rate of 70% or more and less than 90%) | 1 (Herbicidal rate of 5% or more and less than 20%) | 0 (Herbicidal rate of 5% or less (almost no effect)) | 4 (Herbicidal rate of 70% or more and less than 90%) | 5 (Herbicidal rate of 90% or more (almost completely withered)) | 5 (Herbicidal rate of 90% or more (almost completely withered)) | 5 (Herbicidal rate of 90% or more (almost completely withered)) | 1 (Herbicidal rate of 5% or more and less than 20%) | 5 (Herbicidal rate of 90% or more (almost completely withered)) | 3 (Herbicidal rate of 40% or more and less than 70%) | 5 (Herbicidal rate of 90% or more (almost completely withered)) | 5 (Herbicidal rate of 90% or more (almost completely withered)) | 5 (Herbicidal rate of 90% or more (almost completely withered)) | 4 (Herbicidal rate of 70% or more and less than 90%)
2 | CCOc1cc(F)ccc1-c1sc2cc(F)ccc2c1-c1c(O)c(C)nn(C)c1=O [3-011] | 5 (Herbicidal rate of 90% or more (almost completely withered)) | 5 (Herbicidal rate of 90% or more (almost completely withered)) | 5 (Herbicidal rate of 90% or more (almost completely withered)) | 4 (Herbicidal rate of 70% or more and less than 90%) | 5 (Herbicidal rate of 90% or more (almost completely withered)) | 5 (Herbicidal rate of 90% or more (almost completely withered)) | 3 (Herbicidal rate of 40% or more and less than 70%) | 3 (Herbicidal rate of 40% or more and less than 70%) | 4 (Herbicidal rate of 70% or more and less than 90%) | 5 (Herbicidal rate of 90% or more (almost completely withered)) | 5 (Herbicidal rate of 90% or more (almost completely withered)) | 3 (Herbicidal rate of 40% or more and less than 70%) | 5 (Herbicidal rate of 90% or more (almost completely withered)) | 4 (Herbicidal rate of 70% or more and less than 90%) | 5 (Herbicidal rate of 90% or more (almost completely withered)) | 5 (Herbicidal rate of 90% or more (almost completely withered)) | 5 (Herbicidal rate of 90% or more (almost completely withered)) | 4 (Herbicidal rate of 70% or more and less than 90%)
3 | CCCC(=O)Oc1c(C)nn(C)c(=O)c1-c1c(-c2ccc(F)cc2OCC)sc2cc(F)ccc12 [3-012] | 5 (Herbicidal rate of 90% or more (almost completely withered)) | 4 (Herbicidal rate of 70% or more and less than 90%) | 5 (Herbicidal rate of 90% or more (almost completely withered)) | 4 (Herbicidal rate of 70% or more and less than 90%) | 4 (Herbicidal rate of 70% or more and less than 90%) | 5 (Herbicidal rate of 90% or more (almost completely withered)) | 4 (Herbicidal rate of 70% or more and less than 90%) | 3 (Herbicidal rate of 40% or more and less than 70%) | 5 (Herbicidal rate of 90% or more (almost completely withered)) | 5 (Herbicidal rate of 90% or more (almost completely withered)) | 5 (Herbicidal rate of 90% or more (almost completely withered)) | 5 (Herbicidal rate of 90% or more (almost completely withered)) | 5 (Herbicidal rate of 90% or more (almost completely withered)) | 4 (Herbicidal rate of 70% or more and less than 90%) | 3 (Herbicidal rate of 40% or more and less than 70%) | 5 (Herbicidal rate of 90% or more (almost completely withered)) | 5 (Herbicidal rate of 90% or more (almost completely withered)) | 3 (Herbicidal rate of 40% or more and less than 70%)
4 | Cc1nn(C)c(=O)c(-c2c(-c3ccc4c(c3)OCCO4)sc3cc(F)ccc23)c1O [3-013] | 5 (Herbicidal rate of 90% or more (almost completely withered)) | 1 (Herbicidal rate of 5% or more and less than 20%) | 5 (Herbicidal rate of 90% or more (almost completely withered)) | 4 (Herbicidal rate of 70% or more and less than 90%) | 0 (Herbicidal rate of 5% or less (almost no effect)) | 3 (Herbicidal rate of 40% or more and less than 70%) | 0 (Herbicidal rate of 5% or less (almost no effect)) | 0 (Herbicidal rate of 5% or less (almost no effect)) | 5 (Herbicidal rate of 90% or more (almost completely withered)) | 4 (Herbicidal rate of 70% or more and less than 90%) | 4 (Herbicidal rate of 70% or more and less than 90%) | 0 (Herbicidal rate of 5% or less (almost no effect)) | 0 (Herbicidal rate of 5% or less (almost no effect)) | 3 (Herbicidal rate of 40% or more and less than 70%) | 5 (Herbicidal rate of 90% or more (almost completely withered)) | 5 (Herbicidal rate of 90% or more (almost completely withered)) | 4 (Herbicidal rate of 70% or more and less than 90%) | 0 (Herbicidal rate of 5% or less (almost no effect))
